In patent publication US20230158025A1 (UNIVERSITY OF UTAH RESEARCH FOUNDATION, priority 2020, published 2023):
Where two headings read alike, the source gives them in different places. Blank lines part the entries; values can stand above or below the compound they belong to.

What was measured:
[1] = rat microsomal stability (RLM)
recombinant human GALK1 = recombinant human GALK1 (Homo sapiens, UniProt P51570); assay: hGALK1 biochemical activity assay (Kinase-Glo Plus, ATP depletion)
Outline: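 Turnover is measured as ATP depletion by Kinase-Glo Plus luminescence after a 1 h room-temperature reaction. Compounds span 11 concentrations, 57.4 μM–0.97 nM, in final 20 mM HEPES pH 8.0 with 5 mM MgCl2. The substrate solution held 35 μM ATP; the added solution held 5 nM human or mouse GALK1 and 100 μM galactose.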

recombinant mouse GALK1 = recombinant mouse GALK1 (Mus musculus, UniProt Q9R0N0); assay: mGALK1 biochemical activity assay (Kinase-Glo Plus, ATP depletion)
recombinant mouse GALK1, sequence (Q9R0N0 whole entry): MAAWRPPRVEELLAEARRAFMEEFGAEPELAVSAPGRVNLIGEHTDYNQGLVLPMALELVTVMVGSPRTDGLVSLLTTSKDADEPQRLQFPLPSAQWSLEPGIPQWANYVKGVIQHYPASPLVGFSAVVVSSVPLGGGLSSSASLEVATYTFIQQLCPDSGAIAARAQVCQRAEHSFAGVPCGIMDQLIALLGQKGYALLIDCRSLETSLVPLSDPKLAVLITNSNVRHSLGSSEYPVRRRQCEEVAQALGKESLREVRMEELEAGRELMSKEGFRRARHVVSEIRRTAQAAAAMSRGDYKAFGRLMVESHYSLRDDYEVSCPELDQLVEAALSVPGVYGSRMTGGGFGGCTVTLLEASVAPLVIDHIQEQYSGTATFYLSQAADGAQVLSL
Outline: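 Recombinant GALK1 (5 nM) with 100 μM galactose; GALK1 turnover read as ATP depletion by Kinase-Glo Plus luminescence. Reaction ran 1 h at room temperature before detection reagent was added.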

[2] = aqueous kinetic solubility
[3] = Tables 2-15, 35 μM ATP, 100 μM galactose, 1 h, bracketed figure after some values (e.g. −1.2) is undefined and not reported, read-out: hGALK IC50
[4] = recombinant human GALK1, Kinase-Glo Plus ATP depletion, read-out: hGALK
[5] = Tables 2-15, 35 μM ATP, 100 μM galactose, 1 h, bracketed figure after some values is undefined and not reported, read-out: mGALK IC50
[6] = recombinant mouse GALK1, Kinase-Glo Plus ATP depletion, read-out: mGALK
[7] = recombinant mouse GALK1, Kinase-Glo Plus ATP depletion

recombinant human GALK1, sequence (P51570 whole entry): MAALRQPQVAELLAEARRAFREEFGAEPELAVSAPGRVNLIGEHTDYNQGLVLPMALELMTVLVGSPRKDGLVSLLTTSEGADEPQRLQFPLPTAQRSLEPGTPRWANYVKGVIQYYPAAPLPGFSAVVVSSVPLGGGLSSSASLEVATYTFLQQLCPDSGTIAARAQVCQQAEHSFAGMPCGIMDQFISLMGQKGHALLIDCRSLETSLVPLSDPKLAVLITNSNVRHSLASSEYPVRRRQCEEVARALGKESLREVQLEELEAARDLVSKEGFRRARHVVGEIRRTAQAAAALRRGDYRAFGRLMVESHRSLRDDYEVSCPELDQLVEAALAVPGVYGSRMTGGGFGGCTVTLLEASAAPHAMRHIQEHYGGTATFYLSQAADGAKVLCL

SMILES: CC1=C(C(=O)Nc2cc(C(=O)O)ccn2)C(c2ccc(C(F)(F)F)cc2Cl)N=C(Nc2nc3ccc(F)cc3o2)N1 (stereo not shown) [Compound 61, 2-(4-(2-chloro-4-(trifluoromethyl)phenyl)-2-((6-fluorobenzo[d]oxazol-2-yl)amino)-6-methyl-1,4-dihydropyrimidine-5-carboxamido)isonicotinic acid]
Metab. Stabil. (m) ([1]; microsomal half-life): >30 m
IC50 (recombinant human GALK1; [3]): 1.53 µM
IC50 (recombinant human GALK1; [4]): 1.53 µM
Perm. (1 × 10^−6 cm/sec) (PAMPA permeability): <1 1 × 10^−6 cm/sec
IC50 (recombinant mouse GALK1; [5]): 10.9 µM
IC50 (recombinant mouse GALK1; [6]): 10.9 µM
Sol. [2]: 19.4 µg/mL

SMILES: CC1=C(C(=O)Nc2nnc(-c3cccnc3)s2)C(c2ccccc2Cl)N=C(Nc2nc3ccc(Cl)cc3o2)N1 (stereo not shown) [Compound 94, 2-((6-chlorobenzo[d]oxazol-2-yl)amino)-4-(2-chlorophenyl)-6-methyl-N-(5-(pyridin-3-yl)-1,3,4-thiadiazol-2-yl)-1,4-dihydropyrimidine-5-carboxamide]
Metab. Stabil. (m) ([1]; microsomal half-life): >30 m
IC50 (recombinant human GALK1; [4]): 27.3 µM
Perm. (1 × 10^−6 cm/sec) (PAMPA permeability): <10.3 1 × 10^−6 cm/sec
mGALK (μM) (recombinant mouse GALK1; [7]): in- active
Sol. [2]: <1 µg/mL

SMILES: CCn1nc(C)c(CNC(=O)C2=C(C)NC(Nc3nc4ccc(F)c(N)c4o3)=NC2c2ccc(C)cc2Cl)c1F (stereo not shown) [Compound 129, 2-((7-amino-6-fluorobenzo[d]oxazol-2-yl)amino)-4-(2-chloro-4-methylphenyl)-N-((1-ethyl-5-fluoro-3-methyl-1H-pyrazol-4-yl)methyl)-6-methyl-1,4-dihydropyrimidine-5-carboxamide]
Metab. Stabil. (m) ([1]; microsomal stability half-life): 3.55 m
IC50 (recombinant human GALK1; [3]): 0.43 µM
IC50 (recombinant human GALK1; [4]): 0.43 µM
Perm. (1 × 10^−6 cm/sec) (PAMPA permeability; PAMPA): 187.9 1 × 10^−6 cm/sec
IC50 (recombinant mouse GALK1; [5]): 2.17 µM
IC50 (recombinant mouse GALK1; [6]): 2.17 µM
Sol. ([2]; aqueous kinetic solubility): 1.53 µg/mL

SMILES: CC1=C(C(=O)Nc2cc(C#N)ccn2)C(c2ccccc2Cl)N=C(Nc2nc3ccc(F)cc3o2)N1 (stereo not shown) [Compound 39, 4-(2-chlorophenyl)-N-(4-cyanopyridin-2-yl)-2-((6-fluorobenzo[d]oxazol-2-yl)amino)-6-methyl-1,4-dihydropyrimidine-5-carboxamide]
Metab. Stabil. (m) ([1]; microsomal half-life): >30 m
IC50 (recombinant human GALK1; [3]): 4.32 µM
IC50 (recombinant human GALK1; [4]): 4.32 µM
Perm. (1 × 10^−6 cm/sec) (PAMPA permeability): <6.8 1 × 10^−6 cm/sec
IC50 (recombinant mouse GALK1; [5]): 4.85 µM
IC50 (recombinant mouse GALK1; [6]): 4.85 µM
Sol. [2]: <1 µg/mL

SMILES: CC1=C(C(=O)Nc2ccc(C(=O)O)cn2)C(c2ccccc2Cl)N=C(Nc2nc3ccc(F)cc3o2)N1 (stereo not shown) [Compound 26, 6-(4-(2-chlorophenyl)-2-((6-fluorobenzo[d]oxazol-2-yl)amino)-6-methyl-1,4-dihydropyrimidine-5-carboxamido)nicotinic acid]
Metab. Stabil. (m) ([1]; microsomal half-life): >30 m
IC50 (recombinant human GALK1; [4]): 0.68 µM
Perm. (1 × 10^−6 cm/sec) (PAMPA permeability): <1 1 × 10^−6 cm/sec
IC50 (recombinant mouse GALK1; [6]): 3.43 µM
Sol. [2]: >77 µg/mL

SMILES: CC1=C(C(=O)NCc2cnn(C)c2)C(c2ccc(Cl)cc2Cl)N=C(Nc2nc3cccc(N)c3o2)N1 (stereo not shown) [Compound 123, 2-((7-aminobenzo[d]oxazol-2-yl)amino)-4-(2,4-dichlorophenyl)-N-((1-methyl-1H-pyrazol-4-yl)methyl)-6-methyl-1,4-dihydropyrimidine-5-carboxamide]
Metab. Stabil. (m) ([1]; microsomal stability half-life): 17.76 m
IC50 (recombinant human GALK1; [4]): 1.09 µM
Perm. (1 × 10^−6 cm/sec) (PAMPA permeability; PAMPA): 142.4 1 × 10^−6 cm/sec
IC50 (recombinant mouse GALK1; [6]): 6.85 µM
Sol. ([2]; aqueous kinetic solubility): 15.63 µg/mL

SMILES: CC1=C(C(=O)Nc2cc(C(=O)O)ccn2)C(c2ccc(-c3cnc(C)nc3)cc2Cl)N=C(Nc2nc3ccc(F)cc3o2)N1 (stereo not shown) [Compound 71, 2-(4-(2-chloro-4-(2-methylpyrimidin-5-yl)phenyl)-2-((6-fluorobenzo[d]oxazol-2-yl)amino)-6-methyl-1,4-dihydropyrimidine-5-carboxamido)isonicotinic acid]
Metab. Stabil. (m) ([1]; microsomal half-life): >30 m
IC50 (recombinant human GALK1; [4]): 0.11 µM
Perm. (1 × 10^−6 cm/sec) (PAMPA permeability): <1 1 × 10^−6 cm/sec
IC50 (recombinant mouse GALK1; [5]): 0.69 µM
IC50 (recombinant mouse GALK1; [6]): 0.69 µM
Sol. [2]: >90 µg/mL

SMILES: CC1=C(C(=O)Nc2cc(N(C)C)ccn2)C(c2ccc(C)cc2Cl)N=C(Nc2nc3cccc(N)c3o2)N1 (stereo not shown) [Compound 89, 2-((7-aminobenzo[d]oxazol-2-yl)amino)-4-(2-chloro-4-methylphenyl)-N-(4-(dimethylamino)pyridin-2-yl)-6-methyl-1,4-dihydropyrimidine-5-carboxamide]
Metab. Stabil. (m) ([1]; microsomal half-life): 11.7017 m
IC50 (recombinant human GALK1; [3]): 3.43 µM
IC50 (recombinant human GALK1; [4]): 3.34 µM
Perm. (1 × 10^−6 cm/sec) (PAMPA permeability): 179.3 1 × 10^−6 cm/sec
IC50 (recombinant mouse GALK1; [5]): 15.3 µM
IC50 (recombinant mouse GALK1; [6]): 15.3 µM
Sol. [2]: 4.6 µg/mL

SMILES: CC1=C(C(=O)Nc2cc(C(=O)O)ccc2F)C(c2ccccc2Cl)N=C(Nc2nc3ccc(F)cc3o2)N1 (stereo not shown) [Compound 30, 3-(4-(2-chlorophenyl)-2-((6-fluorobenzo[d]oxazol-2-yl)amino)-6-methyl-1,4-dihydropyrimidine-5-carboxamido)-4-fluorobenzoic acid]
Metab. Stabil. (m) ([1]; microsomal half-life): >30 m
IC50 (recombinant human GALK1; [4]): 2.17 µM
Perm. (1 × 10^−6 cm/sec) (PAMPA permeability): 2.2 1 × 10^−6 cm/sec
IC50 (recombinant mouse GALK1; [6]): 6.85 µM
Sol. [2]: 35.7 µg/mL

SMILES: CC1=C(C(=O)Nc2cc(C(=O)O)ccn2)C(c2ccc(C)cc2Cl)N=C(Nc2nc3cccc(N)c3o2)N1 (racemic) [Compound 79, 2-(2-((7-aminobenzo[d]oxazol-2-yl)amino)-4-(2-chloro-4-methylphenyl)-6-methyl-1,4-dihydropyrimidine-5-carboxamido)isonicotinic acid]
Metab. Stabil. (m) ([1]; microsomal half-life): >30 m
IC50 (recombinant human GALK1; [3]): 0.12 µM
IC50 (recombinant human GALK1; [4]): 0.12 µM
Papp (PAMPA permeability; PAMPA, Perm. (1 × 10^−6 cm/sec)): < 1 ×10⁻⁶ cm/s
IC50 (recombinant mouse GALK1; [5]): 1.72 µM
IC50 (recombinant mouse GALK1; [6]): 1.72 µM
Sol. [2]: >78 µg/mL

The next lines start with the values.

Metab. Stabil. (m) ([1]; microsomal stability half-life): >30 m
hGALK IC50 (recombinant human GALK1; Tables 2-15, 35 μM ATP, 100 μM galactose, 1 h, bracketed figure after some values (e.g. −1.2) is undefined and not reported): inactive
hGALK (μM) (recombinant human GALK1; recombinant human GALK1, Kinase-Glo Plus ATP depletion): in- active
Perm. (1 × 10^−6 cm/sec) (PAMPA permeability; PAMPA): 2.0 1 × 10^−6 cm/sec
IC50 (recombinant mouse GALK1; [5]): 7.69 µM
IC50 (recombinant mouse GALK1; [6]): 7.69 µM
Sol. ([2]; aqueous kinetic solubility): <1 µg/mL
SMILES: CC1=C(C(=O)Nc2ccc(Cl)cc2)C(c2ccccc2Cl)N=C(Nc2nc3ccccc3o2)N1 (stereo not shown) [Compound 141, 2-(benzo[d]oxazol-2-ylamino)-4-(2-chlorophenyl)-N-(4-chlorophenyl)-6-methyl-1,4-dihydropyrimidine-5-carboxamide]

Metab. Stabil. (m) ([1]; microsomal stability half-life): >30 m
IC50 (recombinant human GALK1; [3]): 19.3 µM
IC50 (recombinant human GALK1; [4]): 19.3 µM
Perm. (1 × 10^−6 cm/sec) (PAMPA permeability; PAMPA): >1227 1 × 10^−6 cm/sec
IC50 (recombinant mouse GALK1; [5]): 15.3 µM
IC50 (recombinant mouse GALK1; [6]): 15.3 µM
Sol. ([2]; aqueous kinetic solubility): >67 µg/mL
SMILES: CC1=C(C(=O)NCCN(C)C)C(c2ccccc2Cl)N=C(Nc2nc3ccccc3o2)N1 (stereo not shown) [Compound 237]

Metab. Stabil. (m) ([1]; microsomal stability half-life): 20 m
IC50 (recombinant human GALK1; [4]): 6.85 µM
Perm. (1 × 10^−6 cm/sec) (PAMPA permeability; PAMPA): 513.0 1 × 10^−6 cm/sec
IC50 (recombinant mouse GALK1; [5]): 12.2 µM
IC50 (recombinant mouse GALK1; [6]): 12.2 µM
Sol. ([2]; aqueous kinetic solubility): <1 µg/mL
SMILES: CC1=C(C(=O)Nc2cccnc2)C(c2ccccc2Cl)N=C(Nc2nc3ccccc3o2)N1 (stereo not shown) [Compound 149, 2-(benzo[d]oxazol-2-ylamino)-N-(pyridin-3-yl)-4-(2-chlorophenyl)-6-methyl-1,4-dihydropyrimidine-5-carboxamide]

Metab. Stabil. (m) ([1]; microsomal stability half-life): >30 m
IC50 (recombinant human GALK1; [3]): 10.9 µM
IC50 (recombinant human GALK1; [4]): 10.9 µM
Perm. (1 × 10^−6 cm/sec) (PAMPA permeability; PAMPA): 6.2 1 × 10^−6 cm/sec
IC50 (recombinant mouse GALK1; [5]): 19.3 µM
IC50 (recombinant mouse GALK1; [6]): 19.3 µM
Sol. ([2]; aqueous kinetic solubility): <1 µg/mL
SMILES: CC1=C(C(=O)Nc2nnc(-c3ccncc3)s2)C(c2ccccc2Cl)N=C(Nc2nc3ccccc3o2)N1 (stereo not shown) [Compound 187, 2-(benzo[d]oxazol-2-ylamino)-4-(2-chlorophenyl)-6-methyl-N-(5-(pyridin-4-yl)-1,3,4-thiadiazol-2-yl)-1,4-dihydropyrimidine-5-carboxamide]

Metab. Stabil. (m) ([1]; microsomal stability half-life): 28.74 m
IC50 (recombinant human GALK1; [3]): 4.32 µM
Perm. (1 × 10^−6 cm/sec) (PAMPA permeability; PAMPA): 56.0 1 × 10^−6 cm/sec
mGALK IC50 (recombinant mouse GALK1; Tables 2-15, 35 μM ATP, 100 μM galactose, 1 h, bracketed figure after some values is undefined and not reported): inactive
mGALK (μM) (recombinant mouse GALK1; [7]): in- active
Sol. ([2]; aqueous kinetic solubility): <1 µg/mL
SMILES: CC1=C(C(=O)Nc2ccccc2Cl)C(c2ccccc2Cl)N=C(Nc2nc3ccccc3o2)N1 (stereo not shown) [Compound 140, 2-(benzo[d]oxazol-2-ylamino)-N,4-bis(2-chlorophenyl)-6-methyl-1,4-dihydropyrimidine-5-carboxamide]

Metab. Stabil. (m) ([1]; microsomal stability half-life): >30 m
IC50 (recombinant human GALK1; [3]): 4.32 µM
IC50 (recombinant human GALK1; [4]): 4.32 µM
Perm. (1 × 10^−6 cm/sec) (PAMPA permeability; PAMPA): <1 1 × 10^−6 cm/sec
IC50 (recombinant mouse GALK1; [5]): 6.85 µM
IC50 (recombinant mouse GALK1; [6]): 6.85 µM
Sol. ([2]; aqueous kinetic solubility): 60.0 µg/mL
SMILES: CC1=C(C(=O)Nc2cccc(C(=O)O)n2)C(c2ccccc2Cl)N=C(Nc2nc3ccccc3o2)N1 (stereo not shown) [Compound 195, 6-(2-(benzo[d]oxazol-2-ylamino)-4-(2-chlorophenyl)-6-methyl-1,4-dihydropyrimidine-5-carboxamido)picolinic acid]

Metab. Stabil. (m) ([1]; microsomal stability half-life, minutes): >30 m
IC50 (recombinant human GALK1; recombinant human GALK1, Kinase-Glo Plus ATP depletion, bracketed figure in the cell, e.g. (−1.2), is not defined in the text shown, read-out: hGALK): 13.7 µM
Perm. (1 × 10^−6 cm/sec) (PAMPA permeability; PAMPA): 19.8 1 × 10^−6 cm/sec
IC50 (recombinant mouse GALK1; recombinant mouse GALK1, Kinase-Glo Plus ATP depletion, bracketed figure in the cell, e.g. (−1.2), is not defined in the text shown, read-out: mGALK): 17.2 µM
Sol. ([2]; aqueous kinetic solubility): <1 µg/mL
SMILES: COc1ccc(Cl)c(C2N=C(Nc3nc4ccccc4o3)NC(C)=C2C(=O)Nc2nncs2)c1 (stereo not shown) [Compound 269, 2-(benzo[d]oxazol-2-ylamino)-4-(2-chloro-5-methoxyphenyl)-6-methyl-N-(1,3,4-thiadiazol-2-yl)-1,4-dihydropyrimidine-5-carboxamide]
